Test results: ChEMBL document CHEMBL1201862, “PubChem BioAssay data set” (2004)
“And” between values parts separate entries of the source, which are not always exact repeats. Equal entries are not always repeated. The source made the active and inactive calls.

Assays:
[1] = target: T1, Voltage-gated N-type calcium channel alpha-1B subunit/Amyloid beta A4 precursor protein-binding family A member 1 (Homo sapiens, UniProt Q00975+Q02410); experiment: disruptors of Mint-PDZ/N-type channel peptide interaction – biochemical, HTRF, SAR follow-up (AID 2489); format: functional
T1 sequence (Q00975 whole entry): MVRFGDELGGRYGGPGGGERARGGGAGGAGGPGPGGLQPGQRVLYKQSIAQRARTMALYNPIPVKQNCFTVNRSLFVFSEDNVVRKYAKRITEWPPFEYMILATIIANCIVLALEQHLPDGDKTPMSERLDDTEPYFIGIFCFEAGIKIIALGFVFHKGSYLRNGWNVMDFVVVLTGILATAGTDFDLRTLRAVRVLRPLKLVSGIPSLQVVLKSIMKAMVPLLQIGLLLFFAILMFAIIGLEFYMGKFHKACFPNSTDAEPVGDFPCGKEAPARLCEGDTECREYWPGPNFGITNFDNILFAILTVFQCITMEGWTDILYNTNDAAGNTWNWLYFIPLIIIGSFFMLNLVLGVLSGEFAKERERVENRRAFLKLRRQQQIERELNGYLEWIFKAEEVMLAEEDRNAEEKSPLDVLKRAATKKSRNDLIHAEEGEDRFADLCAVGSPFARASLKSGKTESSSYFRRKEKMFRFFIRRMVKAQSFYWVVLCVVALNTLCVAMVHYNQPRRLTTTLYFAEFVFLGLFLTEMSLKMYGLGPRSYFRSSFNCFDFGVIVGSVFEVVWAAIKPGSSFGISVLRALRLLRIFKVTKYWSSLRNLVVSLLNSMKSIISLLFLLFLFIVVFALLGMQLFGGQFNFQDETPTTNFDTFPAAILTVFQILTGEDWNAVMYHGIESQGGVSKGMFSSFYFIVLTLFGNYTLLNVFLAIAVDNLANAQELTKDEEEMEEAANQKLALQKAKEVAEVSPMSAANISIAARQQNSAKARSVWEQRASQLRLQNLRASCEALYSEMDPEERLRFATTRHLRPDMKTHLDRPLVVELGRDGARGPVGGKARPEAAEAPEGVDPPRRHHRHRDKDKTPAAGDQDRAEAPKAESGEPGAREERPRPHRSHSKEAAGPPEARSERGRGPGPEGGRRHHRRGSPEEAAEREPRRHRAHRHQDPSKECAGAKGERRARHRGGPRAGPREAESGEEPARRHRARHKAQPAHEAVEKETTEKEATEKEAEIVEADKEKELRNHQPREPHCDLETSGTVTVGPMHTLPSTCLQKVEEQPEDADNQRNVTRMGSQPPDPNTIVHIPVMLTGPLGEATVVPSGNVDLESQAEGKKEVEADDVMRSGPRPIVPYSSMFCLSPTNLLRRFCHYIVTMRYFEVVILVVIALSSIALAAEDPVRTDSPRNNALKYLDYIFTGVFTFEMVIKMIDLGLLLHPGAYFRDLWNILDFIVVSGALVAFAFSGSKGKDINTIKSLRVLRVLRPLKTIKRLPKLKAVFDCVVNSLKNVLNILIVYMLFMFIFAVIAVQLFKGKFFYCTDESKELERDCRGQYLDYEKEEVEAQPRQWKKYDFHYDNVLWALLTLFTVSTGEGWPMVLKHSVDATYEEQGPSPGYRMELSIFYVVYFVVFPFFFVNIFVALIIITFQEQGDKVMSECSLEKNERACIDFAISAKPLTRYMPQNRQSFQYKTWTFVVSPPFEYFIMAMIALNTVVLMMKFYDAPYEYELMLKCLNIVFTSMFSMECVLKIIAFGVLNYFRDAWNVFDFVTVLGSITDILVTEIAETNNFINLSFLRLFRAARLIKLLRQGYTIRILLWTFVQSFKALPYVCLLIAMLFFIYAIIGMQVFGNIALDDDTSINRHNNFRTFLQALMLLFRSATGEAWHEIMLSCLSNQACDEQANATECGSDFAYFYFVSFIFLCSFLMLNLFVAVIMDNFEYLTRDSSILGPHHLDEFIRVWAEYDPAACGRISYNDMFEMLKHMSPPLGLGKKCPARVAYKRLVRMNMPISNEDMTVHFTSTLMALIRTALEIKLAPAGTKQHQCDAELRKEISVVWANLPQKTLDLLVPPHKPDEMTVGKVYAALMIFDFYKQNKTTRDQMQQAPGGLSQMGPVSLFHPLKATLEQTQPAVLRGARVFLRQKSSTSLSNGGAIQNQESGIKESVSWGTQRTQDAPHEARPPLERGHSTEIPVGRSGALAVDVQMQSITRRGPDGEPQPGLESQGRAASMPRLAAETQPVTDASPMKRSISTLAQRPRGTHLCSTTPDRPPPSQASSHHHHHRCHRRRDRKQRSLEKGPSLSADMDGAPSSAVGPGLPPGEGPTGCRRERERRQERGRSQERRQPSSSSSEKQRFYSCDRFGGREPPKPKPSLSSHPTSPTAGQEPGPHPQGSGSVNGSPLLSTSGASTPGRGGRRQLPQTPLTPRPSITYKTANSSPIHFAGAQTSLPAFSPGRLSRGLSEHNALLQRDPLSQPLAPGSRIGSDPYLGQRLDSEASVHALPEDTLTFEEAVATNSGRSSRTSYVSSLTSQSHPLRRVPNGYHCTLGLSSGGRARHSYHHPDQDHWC
T1 sequence (Q02410 whole entry): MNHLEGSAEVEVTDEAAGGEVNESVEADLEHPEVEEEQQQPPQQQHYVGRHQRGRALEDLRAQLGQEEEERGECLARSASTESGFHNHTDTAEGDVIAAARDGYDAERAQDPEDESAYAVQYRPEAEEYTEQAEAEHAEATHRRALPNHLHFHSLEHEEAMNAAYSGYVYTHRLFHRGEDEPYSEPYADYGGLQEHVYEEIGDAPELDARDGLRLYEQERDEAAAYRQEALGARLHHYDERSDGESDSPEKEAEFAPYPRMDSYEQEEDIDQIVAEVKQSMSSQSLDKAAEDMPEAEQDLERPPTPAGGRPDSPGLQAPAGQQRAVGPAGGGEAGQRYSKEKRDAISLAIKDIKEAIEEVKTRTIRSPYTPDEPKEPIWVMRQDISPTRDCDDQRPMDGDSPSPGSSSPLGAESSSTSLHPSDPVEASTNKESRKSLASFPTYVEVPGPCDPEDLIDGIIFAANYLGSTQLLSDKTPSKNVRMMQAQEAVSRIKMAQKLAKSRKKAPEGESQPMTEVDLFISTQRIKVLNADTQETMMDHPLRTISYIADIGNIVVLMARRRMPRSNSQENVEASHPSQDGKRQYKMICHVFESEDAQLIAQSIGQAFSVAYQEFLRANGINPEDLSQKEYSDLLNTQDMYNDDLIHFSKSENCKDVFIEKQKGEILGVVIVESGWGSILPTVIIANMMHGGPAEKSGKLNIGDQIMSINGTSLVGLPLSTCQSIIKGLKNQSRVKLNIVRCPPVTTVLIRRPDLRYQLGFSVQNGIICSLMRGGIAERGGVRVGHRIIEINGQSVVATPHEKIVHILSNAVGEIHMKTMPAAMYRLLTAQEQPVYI

[2] = target: T1, Voltage-gated N-type calcium channel alpha-1B subunit/Amyloid beta A4 precursor protein-binding family A member 1; experiment: disruptors of Mint-PDZ/N-type channel peptide interaction – biochemical, HTRF, set 2, SAR follow-up (AID 434980); format: functional
Beta-galactosidase = Beta-galactosidase (Escherichia coli, UniProt Q8VNN2); format: functional
[3] = target: T2, Delta-type opioid receptor (Homo sapiens, UniProt P41143); experiment: SAR Analysis of Antagonists of the DOR Receptor using an Image-Based Assay - Set 3. [Related pubchem assays (depositor defined):AID1777, AID1785]; format: functional
T2 sequence (P41143 whole entry): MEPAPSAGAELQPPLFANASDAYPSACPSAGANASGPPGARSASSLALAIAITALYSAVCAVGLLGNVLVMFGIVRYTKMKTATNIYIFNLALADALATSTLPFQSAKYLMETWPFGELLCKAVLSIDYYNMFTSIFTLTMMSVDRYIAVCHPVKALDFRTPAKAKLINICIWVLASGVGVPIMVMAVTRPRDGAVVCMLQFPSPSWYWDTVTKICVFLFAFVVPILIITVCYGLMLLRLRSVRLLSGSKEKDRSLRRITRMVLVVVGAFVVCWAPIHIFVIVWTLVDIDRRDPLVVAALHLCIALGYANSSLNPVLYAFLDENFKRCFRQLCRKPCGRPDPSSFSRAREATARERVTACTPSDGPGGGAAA

Mu-type opioid receptor [4] = target: T3, Mu-type opioid receptor (Homo sapiens, UniProt P35372); experiment: SAR Analysis of Antagonists of the MOR Receptor using an Image-Based Assay - Set 3. [Related pubchem assays (depositor defined):AID1777, AID1785, AID1786, AID1966, AID2133, AID2136, AID2284, AID2285, AID2420]; format: functional
T3 sequence (P35372 whole entry): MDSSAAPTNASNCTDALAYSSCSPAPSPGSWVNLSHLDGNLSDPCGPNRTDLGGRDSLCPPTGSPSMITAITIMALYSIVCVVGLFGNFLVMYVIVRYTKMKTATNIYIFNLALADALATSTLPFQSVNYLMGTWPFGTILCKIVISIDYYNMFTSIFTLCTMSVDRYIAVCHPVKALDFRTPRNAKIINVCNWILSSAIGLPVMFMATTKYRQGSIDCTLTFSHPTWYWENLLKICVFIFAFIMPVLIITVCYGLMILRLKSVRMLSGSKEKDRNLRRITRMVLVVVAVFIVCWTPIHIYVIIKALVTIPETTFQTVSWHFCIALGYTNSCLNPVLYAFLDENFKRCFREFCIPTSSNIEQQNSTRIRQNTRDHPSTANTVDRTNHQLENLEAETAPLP

[5] = target: T2, Delta-type opioid receptor; experiment: DOR agonists, SAR follow-up, image-based (AID 2370); format: functional
Mu-type opioid receptor [6] = target: T3, Mu-type opioid receptor; experiment: MOR agonists by imaging, SAR follow-up, image-based (AID 2352); format: functional
[7] = target: T4, Kappa-type opioid receptor (Homo sapiens, UniProt P41145); format: functional
T4 sequence (P41145 whole entry): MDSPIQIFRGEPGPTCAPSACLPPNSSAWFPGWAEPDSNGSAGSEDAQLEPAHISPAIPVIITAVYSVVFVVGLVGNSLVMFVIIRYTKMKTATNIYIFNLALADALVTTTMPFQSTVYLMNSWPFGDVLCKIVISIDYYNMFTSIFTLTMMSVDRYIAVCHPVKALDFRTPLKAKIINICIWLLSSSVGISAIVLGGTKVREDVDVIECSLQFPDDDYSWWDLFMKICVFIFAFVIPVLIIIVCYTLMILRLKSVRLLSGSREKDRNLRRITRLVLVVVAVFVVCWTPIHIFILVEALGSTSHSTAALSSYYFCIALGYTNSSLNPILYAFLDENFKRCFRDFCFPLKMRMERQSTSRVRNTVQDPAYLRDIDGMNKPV

[8] = target: T4, Kappa-type opioid receptor; experiment: SAR analysis of Antagonists of the Kappa Opioid Receptor (KOR) using an Image-Based Assay - Set 3. [Related pubchem assays (depositor defined):AID1777, AID1785]; format: functional
Mu-type opioid receptor [9] = target: T3, Mu-type opioid receptor; experiment: HTS Image-Based Screen for Agonists of the MOR Receptor. [Related pubchem assays (depositor defined):AID1777, AID1785, AID1786, AID2133]; format: functional
[10] = target: T2, Delta-type opioid receptor; experiment: HTS Image-Based Screen for Antagonists of the DOR Receptor. [Related pubchem assays (depositor defined):AID1777, AID1785, AID1786, AID2133]; format: functional
[11] = target: T4, Kappa-type opioid receptor; experiment: SAR analysis of small molecule antagonists of the kappa opioid receptor via a luminescent beta-arrestin assay - Set 3. [Related pubchem assays (depositor defined):AID1777, AID1778, AID1785, AID1786, AID1966, AID2133, AID2136, AID2285, AID2495]; format: functional
Mu-type opioid receptor [12] = target: T3, Mu-type opioid receptor; experiment: MOR antagonists, SAR follow-up, image-based (AID 2420); format: functional;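 also: compounds added before stimulation of receptor with agonist DAMGO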
[13] = target: T4, Kappa-type opioid receptor; experiment: kappa opioid receptor blockers, cell-based, luminescence, beta-arrestin, SAR follow-up (AID 2285); format: functional
[14] = target: T4, Kappa-type opioid receptor; experiment: KOR agonist analogs, imaging readout, SAR follow-up, image-based (AID 2359); format: functional
[15] = target: T4, Kappa-type opioid receptor; format: functional; remark: listed apart in the source
[16] = target: T4, Kappa-type opioid receptor; experiment: KOR antagonists by imaging, SAR follow-up, image-based (AID 2348); format: functional
[17] = target: T2, Delta-type opioid receptor; experiment: DOR antagonists, SAR follow-up, image-based (AID 2357); format: functional
[18] = target: T4, Kappa-type opioid receptor; experiment: SAR analysis of Antagonists of the Kappa Opioid Receptor (KOR) using an Image-Based Assay - Set 4. [Related pubchem assays (depositor defined):AID1777, AID1785]; format: functional
[19] = target: T2, Delta-type opioid receptor; experiment: HTS Image-Based Screen for Agonists of the DOR Receptor. [Related pubchem assays (depositor defined):AID1777, AID1786, AID2133]; format: functional
[20] = target: T4, Kappa-type opioid receptor; format: functional; remark: listed apart in the source
Cytochrome P450 2C19 = Cytochrome P450 2C19 (Homo sapiens, UniProt P33261); experiment: Cytochrome panel assay with activity outcomes. Panel member name: p450-cyp2c19 Compounds with AC50 equal or less than 10 uM are considered active; format: functional; conditions: read-out: AC50
Sequence of Cytochrome P450 2C19 (P33261 whole entry): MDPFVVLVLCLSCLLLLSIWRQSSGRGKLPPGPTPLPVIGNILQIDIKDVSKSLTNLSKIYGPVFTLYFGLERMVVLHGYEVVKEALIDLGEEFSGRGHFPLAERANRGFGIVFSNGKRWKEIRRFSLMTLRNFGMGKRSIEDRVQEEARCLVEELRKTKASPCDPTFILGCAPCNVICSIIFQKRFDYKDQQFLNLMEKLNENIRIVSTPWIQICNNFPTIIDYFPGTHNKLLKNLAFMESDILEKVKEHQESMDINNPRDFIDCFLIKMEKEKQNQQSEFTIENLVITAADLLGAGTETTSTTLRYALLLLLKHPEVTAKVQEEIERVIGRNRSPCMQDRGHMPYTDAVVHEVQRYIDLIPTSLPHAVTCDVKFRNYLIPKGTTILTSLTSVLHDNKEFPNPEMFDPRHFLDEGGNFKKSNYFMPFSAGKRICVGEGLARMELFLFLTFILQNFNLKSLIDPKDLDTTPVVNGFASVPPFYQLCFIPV

Cytochrome P450 2C9 = Cytochrome P450 2C9 (Homo sapiens, UniProt P11712)
[21] = target: T4, Kappa-type opioid receptor; format: functional; remark: listed apart in the source
INS1 = experiment: beta cell apoptosis inhibitors, cytokine rescue, dose response, luminescence, retest (AID 449756); format: functional, cell-based; conditions: Rattus norvegicus;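 also: cell death triggered by IL-1 beta plus TNF-alpha plus IFN-gamma mixture; protective hits raise ATP signal compared with cytokine alone wells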
cells [22] = format: functional
[23] = THP-1 cell cytotoxicity, dose response, cytotoxicity control for non-replicating M. tuberculosis project (AID 489025); format: functional
cells [24] = format: functional, cell-based
[25] = HepG2 cell cytotoxicity, dose response, cytotoxicity control for non-replicating M. tuberculosis project (AID 489018); format: functional; conditions: Mycobacterium tuberculosis
cells [26] = format: functional, cell-based; remark: listed apart in the source
Vero = experiment: cells; format: functional; conditions: Chlorocebus sabaeus
BJ [27] = experiment: cells; format: functional, cell-based; conditions: Homo sapiens
Streptococcus = experiment: Group A Streptococcus viability loss, dose response, counter-screen for streptokinase expression inhibitor project, luminescence, BacTiterGlo (AID 1915); format: functional, organism-based;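 also: potency for reduction of bacterial viability or growth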
BJ [28] = experiment: cytotoxicity toward BJ-TERT-LT-ST fibroblasts, dose response, cell-based, RAS-independent, luminescence (AID 1935); format: functional; conditions: Homo sapiens;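 also: BJ fibroblasts immortalized with TERT plus LT and ST oncogenes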
[29] = Vero E6 cell cytotoxicity, dose response, cytotoxicity control for non-replicating M. tuberculosis project, secondary assay (AID 492998); format: functional, VeroE6; conditions: Vero C1008
[30] = target: T5, Microphthalmia-associated transcription factor (Homo sapiens, UniProt O75030); experiment: TRPM1 promoter luciferase signal decrease, dose response, MITF inhibitor project, cell-based, SK-MEL-5, cherry-picked, set 3 (AID 493073); format: functional
T5 sequence (O75030 whole entry): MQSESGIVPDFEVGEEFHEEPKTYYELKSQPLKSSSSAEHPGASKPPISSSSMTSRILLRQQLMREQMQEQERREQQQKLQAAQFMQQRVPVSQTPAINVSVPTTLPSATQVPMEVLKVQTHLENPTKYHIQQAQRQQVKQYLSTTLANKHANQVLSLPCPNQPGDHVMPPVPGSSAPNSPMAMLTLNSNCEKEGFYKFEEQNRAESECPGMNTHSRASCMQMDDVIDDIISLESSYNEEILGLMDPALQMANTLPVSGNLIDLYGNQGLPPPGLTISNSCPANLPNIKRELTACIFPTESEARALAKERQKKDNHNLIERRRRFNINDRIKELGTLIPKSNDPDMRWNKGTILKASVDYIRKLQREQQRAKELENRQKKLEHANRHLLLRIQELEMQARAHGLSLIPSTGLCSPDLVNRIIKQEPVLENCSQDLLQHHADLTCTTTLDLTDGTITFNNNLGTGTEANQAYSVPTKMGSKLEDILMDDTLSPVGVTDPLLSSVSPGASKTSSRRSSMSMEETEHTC

[31] = tested on: Streptococcus sp. 'group A'; experiment: growth inhibition of control SK(-) GAS strain, dose response, counter-screen for streptokinase expression inhibitor project, luminescence, kanamycin, BacTiterGlo, confirmation (AID 1900); format: functional, organism-based
BJ [32] = experiment: cytotoxicity toward BJ-TERT fibroblasts, dose response, cell-based, RAS-independent, luminescence (AID 1933); format: functional; conditions: Homo sapiens
[33] = cytotoxicity toward DRD oncogenic fibroblasts, dose response, cell-based, non-viral oncogenic, luminescence (AID 1934); format: functional; conditions: Homo sapiens
BJ [34] = experiment: cytotoxicity toward Ras-transformed BJeLR fibroblasts, dose response, cell-based, alamar blue fluorescence, cherrypicked samples (AID 2631); format: functional; conditions: Homo sapiens;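 also: confirmatory dose-response assay in RAS-dependent BJ fibroblasts engineered with TERT, LT and ST, with cytotoxicity read by fluorescence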
[35] = target: T6, Scavenger receptor class B member 1 (Mus musculus, UniProt Q61009); experiment: inhibitors of SR-BI mediated HDL lipid uptake, dose response, ldlA[mSR-BI] cells, fluorescence, cherry pick (AID 493194); format: functional, cell-based;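 also: cellular uptake of fluorescent DiI-labeled HDL measured as cell fluorescence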
T6 sequence (Q61009 whole entry): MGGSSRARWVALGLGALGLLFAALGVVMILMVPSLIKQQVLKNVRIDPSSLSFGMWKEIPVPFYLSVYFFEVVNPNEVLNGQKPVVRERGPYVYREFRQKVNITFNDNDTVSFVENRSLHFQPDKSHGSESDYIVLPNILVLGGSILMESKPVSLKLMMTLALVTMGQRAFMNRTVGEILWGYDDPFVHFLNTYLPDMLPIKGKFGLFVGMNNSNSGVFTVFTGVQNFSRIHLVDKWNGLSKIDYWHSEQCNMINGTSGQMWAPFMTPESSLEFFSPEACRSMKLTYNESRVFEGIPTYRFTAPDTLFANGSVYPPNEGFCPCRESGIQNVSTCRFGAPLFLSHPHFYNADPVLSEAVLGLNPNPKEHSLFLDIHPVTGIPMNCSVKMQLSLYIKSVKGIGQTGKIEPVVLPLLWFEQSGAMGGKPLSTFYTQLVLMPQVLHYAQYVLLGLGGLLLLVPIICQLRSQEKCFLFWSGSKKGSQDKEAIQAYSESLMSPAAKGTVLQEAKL

CCCOc1ccc(N2C(=O)C3C(C2=O)C2(C)C=CC3(C)O2)cc1 (centres undefined)
IC50 [1]: 9.66 µM (active) | IC50 [2]: > 56.8 µM (inactive)

COc1ccc(N2CCN(CCCNC(=O)Cn3c(=O)c4cccn4c4cccnc43)CC2)cc1
EC50 (Beta-galactosidase): > 31.5 µM (inactive) | IC50 [3]: > 32 µM (inactive) | IC50 (Mu-type opioid receptor [4]): > 32 µM (inactive) | EC50 [5]: > 32 µM (inactive) | EC50 (Mu-type opioid receptor [6]): > 32 µM (inactive) | IC50 [7]: 2.17 µM (active) | IC50 [8]: 243 nM (active) and 670 nM (active) | EC50 (Mu-type opioid receptor [9]): > 32 µM (inactive) | IC50 [10]: > 32 µM (inactive) | IC50 [11]: 1.07 µM (active) and 3.05 µM (active) | IC50 (Mu-type opioid receptor [12]): > 32 µM (inactive) | IC50 [13]: 1.67 µM (active) | EC50 [14]: > 32 µM (inactive) | IC50 [15]: 1.32 µM | IC50 [16]: 4.14 µM (active) | IC50 [17]: > 32 µM (inactive) | IC50 [18]: 0.205 µM (active) | EC50 [19]: > 32 µM (inactive)

CCC(C)(C(=O)NC1CCCC1)N(Cc1ccco1)C(=O)c1ccccn1 (centres undefined)
EC50 [20]: 11.4 µM | AC50 (Cytochrome P450 2C19): 7.94 µM (inconclusive) | EC50 (Mu-type opioid receptor [9]): > 32 µM (inactive) | IC50 [10]: > 32 µM (inactive) | AC50 (Cytochrome P450 2C9): 12.6 µM (inconclusive) | EC50 [19]: > 32 µM (inactive) | EC50 [21]: 9.05 µM

COc1cccc(C(=O)N/N=C(/c2ccccc2)c2ccccn2)c1
AC50 (INS1): 0.745 µM (active) | IC50 (cells [22]): 2.04 µM (active) | CC50 [23]: 0.844 µM (active) | EC50 (cells [24]): 9.7 µM (active) | CC50 [25]: 11.3 µM (active) | EC50 (cells [26]): > 350 µM (not active) | CC50 (Vero): 2.36 µM (active) | EC50 (BJ [27]): 4.58 µM (active) | EC50 (Streptococcus): 18 µM (active) | EC50 (BJ [28]): 3.26 µM (active) | CC50 [29]: 1.98 µM (active) | AC50 [30]: 5.8 µM (active) | EC50 [31]: 14.2 µM (active) | EC50 (BJ [32]): 2.69 µM (active) | EC50 [33]: 2.82 µM (active) | EC50 (BJ [34]): 1.45 µM (active)

CCOc1ccc(CCNC(=O)C2CC(=O)N(c3ccccc3OCC)C2)cc1OCC (centres undefined)
AC50 [35]: 17.3 µM (active)
